# Laboratory results reported in publication PMC5547389, “Structure-activity relationships and molecular docking studies of chromene and chromene based azo chromophores: A novel series of potent antimicrobial and anticancer agents” (EXCLI Journal, 2017).
# Tests used:
# [1] = system: human hepatocellular carcinoma (HEPG-2); test: Cytotoxic screening; format: cell-based; conditions: HepG2, read-out: IC50 HepG-2
# Protocol: (§1) Human colon carcinoma (HCT-116), human hepatocellular carcinoma (HEPG-2), adenocarcinomic human alveolar basal epithelial cell (A-549), and human breast adenocarcinoma (MCF-7) cell lines were obtained from the American Type Culture Collection (ATCC, Rockville, MD). The cells were grown on RPMI-1640 medium supplemented with 10 % inactivated fetal calf serum and 50 µg/ml gentamycin. The cells were maintained at 37 °C in a humidified atmosphere with 5 % CO2 and were subcultured two to three times a week. Potential cytotoxicity of the compounds was evaluated on tumor cells using the method of Gangadevi and Muthumary (2007[21]) (Klancnik et al., 2010[36]). The cells were grown as monolayers in growth RPMI-1640. The monolayers of 104 cells adhered at the bottom of the wells in a 96-well microtiter plate incubated for 24 h at 37 °C in a humidified incubator with 5 % CO2. The monolayers were then washed with sterile phosphate buffered saline (0.01 M pH 7.2) and simultaneously the cells were treated with 100 µL from different dilutions of tested sample in fresh maintenance medium and incubated at 37 °C. A control of untreated cells was made in the absence of tested sample. Positive controls containing doxorubicin were also tested as a reference drug for comparison. Six wells were used for each concentration of the test sample. Every 24 hours an observation under the inverted microscope was made. The number of the surviving cells was determined by staining the cells with crystal violet (Mosmann, 1983[42]; Gangadevi and Muthumary, 2007[21]) followed by cell lysing using 33 % glacial acetic acid and reading the absorbance at 590 nm using microplate reader (SunRise, TECAN, Inc, USA) after well mixing. The absorbance values from untreated cells were considered as 100 % proliferation. The number of viable cells was determined using microplate reader as previously mentioned before and the percentage of […] was calculated as [1-(ODt/ODc)] x 100 % where ODt is the mean optical density of wells treated with the tested sample and ODc is the mean optical density of untreated cells. The relation between surviving cells and drug concentration was plotted to get the survival curve of each tumor cell line after treatment with the specified compound. The 50 % inhibitory concentration (IC50), the concentration required to cause toxic effects in 50 % of intact cells, was estimated from graphic plots.
# (§2) The in vitro cytotoxic activity was performed by MTT assay (Mosmann, 1983[42]; Alley et al., 1988[6]) against three human carcinoma cell lines: Human colon carcinoma (HCT-116), human breast adenocarcinoma (MCF-7), and human hepatocellular carcinoma (HEPG-2).
# [2] = system: human breast adenocarcinoma (MCF-7); test: Cytotoxic screening; format: cell-based; conditions: for IC50: Homo sapiens, MCF7, read-out: IC50 MCF-7
# Protocol: as §1, §2
# [3] = system: Human colon carcinoma (HCT-116); test: Cytotoxic screening; format: cell-based; conditions: HCT-116; for IC50: Homo sapiens, read-out: IC50 HCT-116
# Protocol: as §1, §2
SMILES,melting point [°C],IC50 [1] [µg/mL],IC50 [2] [µg/mL],IC50 [3] [µg/mL],IC50 MCF-7 ([2]; MCF-7) [µg/mL],IC50 HCT-116 [3] [µg/mL]
"N#CC1=C(N)Oc2c(N)cc3ccccc3c2C1c1cccc(C(F)(F)F)c1F (stereo not shown) [4g, 3,5-Diamino-1-(2-fluoro-3-trifluoromethyl-phenyl)-1H-benzo[f]chromene-2-carbonitrile]",202,32.4,53.5,30,,
"CC[C@]1(O)C[C@@H]2CN(CCc3c([nH]c4ccccc34)[C@@](C(=O)OC)(c3cc4c(cc3OC)N(C)[C@H]3[C@@](O)(C(=O)OC)[C@H](OC(C)=O)[C@]5(CC)C=CCN6CC[C@]43[C@@H]65)C2)C1 [Vinblastine, reference compound]",,4.6,6.1,2.6,,
"O=c1[nH]cc(F)c(=O)[nH]1 [5-Flurouracil, reference compound]",,,,,3.9,4.3
"N#CC1=C(N)Oc2c(N)cc3ccccc3c2C1c1ccc(Cl)cc1Cl (stereo not shown) [4e, 3,5-Diamino-1-(2,4-dichloro-phenyl)-1H-benzo[f]chromene-2-carbonitrile]",278,1,1.5,2,,
"COc1cccc2c1C(=O)c1c(O)c3c(c(O)c1C2=O)C[C@@](O)(C(=O)CO)C[C@@H]3O[C@H]1C[C@H](N)[C@H](O)[C@H](C)O1 [Doxorubicin, reference compound]",,1.19,1.02,0.88,,

# More lines, main results first:
melting point [°C],SMILES,IC50 [1] [µg/mL],IC50 [2] [µg/mL],IC50 [3] [µg/mL],IC50 MCF-7 ([2]; MCF-7) [µg/mL],IC50 HCT-116 [3] [µg/mL]
282,"N#CC1=C(N)Oc2c(N)cc3ccccc3c2C1c1ccc(F)cc1F (stereo not shown) [4f, 3,5-Diamino-1-(2,4-difluoro-phenyl)-1H-benzo[f]chromene-2-carbonitrile]",5.22,6.38,9.25,,
230,"N#CC1=C(N)Oc2c(N)cc3ccccc3c2C1c1ccsc1 (stereo not shown) [4i, 3,5-Diamino-1-thiophen-3-yl-1H-benzo[f]chromene-2-carbonitrile]",188,386,500,,
225,"COc1cc(C2C(C#N)=C(N)Oc3c(N)cc4ccccc4c32)cc(OC)c1OC (stereo not shown) [4h, 3,5-Diamino-1-(3,4,5-trimethoxy-phenyl)-1H-benzo[f]chromene-2-carbonitrile]",500,500,500,,
